According to US6906237B2, “Vivo assay for anti angiogenic compounds” (priority 2001, dated 2005):
Entries after “also recorded” stand apart in the source; their conditions may differ.

B1: endostatin: recombinant human endostatin, 22kD protein expressed by HEK293 cells stably transfected with plasmid pGT60hEndo (HEK293endo) (protein, UniProt P39060 1572-1754, looked up)
Endostatin: HSHRDFQPVLHLVALNSPLSGGMRGIRGADFQCFQQARAVGLAGTFRAFLSSRLQDLYSIVRRADRAAVPIVNLKDELLFPSWEALFSGSEGPLKPGARIFSFDGKDVLRHPTWPQKSVWHGSDPNGRRLTESYCETWRTEAPSATGQASSLLGGRLLGQSAASCHHAYIVLCIENSFMTASK
modifications: Endostatin

Experiments:
[1] = test system: host murine blood vessels; experiment: Host vessel invasion of Matrigel implants in SCID mice without human EC; assay type: in vivo; settings: FGF-2 alone in Matrigel, no HDMEC
Description: (§1) This procedure is based on a modification of the mouse angiogenesis model previously described^41. Two-three week old male or female SCID mice (Taconic, Germantown, N.Y.) were used as hosts for all implants. Primary HDMEC and HDMEC-T were harvested, washed twice and re-suspended in serum-free EGM-2 basal medium at the concentration of 1×10^5/μl. Ten μl of cells were mixed with 0.5 ml of Matrigel on ice and the mixture was implanted in the ventral midline thoracic tissue of each mouse by subcutaneous injection using a #25 needle. Up to three separate injections could be performed on a single mouse. For some experiments, recombinant human VEGF165 (2 μg/ml) (R&D systems, Minneapolis, Minn.) or bovine FGF-2 (150 ng/ml) (R&D systems, Minneapolis, Minn.) were added to the mixture. When tumor cells (HT1080 and 293, ATCC) or primary human dermal fibroblasts^38 were injected, the procedure remained the same except basal D-MEM medium replaced EGM-2.
Matrigel implants were removed at 1, 2, 4 and 6 wk following xenografting, fixed in 10% buffered formalin overnight, paraffin-embedded and sectioned. H&E stained thin sections were prepared at Pan-insular Histopathology laboratory (Los Gatos, Calif.). […] For micromorphometry, 5 separate 20× fields were randomly selected per tissue section and the number of annular structures were counted and averaged. […]

[2] = test system: HDMEC-GT derived microvessels; experiment: SCID mice xenografting of HDMEC-GT in Matrigel with pro-angiogenic factors; human vessel density by human type IV collagen micromorphometry; assay type: in vivo, human cells in SCID mice; settings: for human vessel density (human type IV collagen micromorphometry), result in words: VEGF 2 μg/ml or FGF-2 150 ng/ml in Matrigel with HDMEC-GT, two weeks after implantation, versus controls
Description: as §1
(§2) Matrigel implants were removed at 1, 2, 4 and 6 wk following xenografting, fixed in 10% buffered formalin overnight, paraffin-embedded and sectioned. H&E stained thin sections were prepared at Pan-insular Histopathology laboratory (Los Gatos, Calif.). For immunofluoresence, thin sections were deparaffinized and antigens retrieved in 10 mM citric acid (pH 6.0) by microwaving sections for 2×7 min. Sections were then incubated with anti-human type IV collagen IgG (Sigma, St. Louis, Mo.) primary antibody, followed by washing and Cy-3 conjugated secondary IgG according to standard protocols. […] For micromorphometry, 5 separate 20× fields were randomly selected per tissue section and the number of annular structures were counted and averaged. Unless specifically stated otherwise, 3 different sections were viewed per implant and replicate implants were grafted for each experimental condition (FIGS. 3 and 6).

[3] = test system: HDMEC-GT derived microvessels; experiment: Endostatin blocking experiments: HDMEC-GT co-implanted with endostatin cDNA-transfected HEK293 cells in Matrigel in SCID mice; assay type: in vivo, human cells in SCID mice; settings: 1:10 ratio HEK293endo to HDMEC-GT, implants removed after one and two weeks, versus sham-transfected HEK293lacZ
Description: as §2
For digital analysis of eGFP fluorescence images we used a novel algorithm (Moss Filter™) to determine the total amount of vascularization in each implant section. This filter determines whether or not each pixel is part of the fluorescently-labeled vascular region. The filter converts the original (8-bit) digital image into a binary image. Pixel values equal to 1 indicate vascularization, whereas zero values indicate no vascularization. The total amount of vascularization in each implant section is obtained by summing all the values in the binary image.
Inhibition of in vivo vessel formation by local delivery of human endostatin was accomplished as follows: The plasmid pGT60hEndo, expressing recombinant human endostatin (InvivoGen, San Diego, Calif.), was stably transfected into human embryonic kidney (HEK293) cell line by calcium phosphate transfection (Invitrogen, Carlsbad, Calif.). […] HEK293 cells expressing lacZ served as a control for both Western blots and grafting experiments. The cell implantation procedure was the same as that described above except that 1×10^5 (or 10^4 or 10^3) transfected HEK were mixed with HDMEC-GT immediately prior to implantation. Grafts were examined at both one week and two after injection and sections were analyzed by both micromorphometry and eGFP as previously described.

[4] = listed as recombinant human endostatin

Row | Molecule | host vessel invasion of Matrigel implants [1] | human vessel density (human type IV collagen micromorphometry), result in words [2] | increased vessel density relative to controls ([2]; VEGF 2 μg/ml mixed with HDMEC-GT and Matrigel, two weeks after grafting, human type IV collagen micromorphometry) | vessel density by micromorphometry (human type IV collagen staining) [3] | vessel density by total fluorescence intensity extracted from binary images of eGFP (Moss Filter) [3] | vessel density by micromorphometry (human type IV collagen staining) [3, 4] | vessel density by total fluorescence intensity extracted from binary images of eGFP (Moss Filter) [3, 4]
1 | FGF-2: bovine FGF-2 (R&D systems), known pro-angiogenic factor | stimulated; also recorded: marked host vessel invasion | statistically increased human vessel density |  |  |  |  | 
2 | VEGF |  | increased vessel density; also recorded: did not demonstrate statistical significance | 20-30% |  |  |  | 
3 | B1 |  |  |  | statistically significant loss of vessel density | statistically significant loss of vessel density | decreased microvessel formation | decreased microvessel formation
